What was measured:
[1] = Chemical stability of the compound in aqueous solution after 9 days by HPLC analysis; format: physicochemical; details: buffer, 216 h
[2] = biological target: T1, Prostaglandin G/H synthase 2 (Homo sapiens, UniProt P35354); test: Inhibition of recombinant human COX-2 assessed as reduction of prostaglandin-G2 to prostaglandin-H2 and oxidation of 10-acetyl-3,7-dihydroxyphenoxazine to resorufin after 5 mins by fluorescence based assay
T1 sequence (P35354 whole entry): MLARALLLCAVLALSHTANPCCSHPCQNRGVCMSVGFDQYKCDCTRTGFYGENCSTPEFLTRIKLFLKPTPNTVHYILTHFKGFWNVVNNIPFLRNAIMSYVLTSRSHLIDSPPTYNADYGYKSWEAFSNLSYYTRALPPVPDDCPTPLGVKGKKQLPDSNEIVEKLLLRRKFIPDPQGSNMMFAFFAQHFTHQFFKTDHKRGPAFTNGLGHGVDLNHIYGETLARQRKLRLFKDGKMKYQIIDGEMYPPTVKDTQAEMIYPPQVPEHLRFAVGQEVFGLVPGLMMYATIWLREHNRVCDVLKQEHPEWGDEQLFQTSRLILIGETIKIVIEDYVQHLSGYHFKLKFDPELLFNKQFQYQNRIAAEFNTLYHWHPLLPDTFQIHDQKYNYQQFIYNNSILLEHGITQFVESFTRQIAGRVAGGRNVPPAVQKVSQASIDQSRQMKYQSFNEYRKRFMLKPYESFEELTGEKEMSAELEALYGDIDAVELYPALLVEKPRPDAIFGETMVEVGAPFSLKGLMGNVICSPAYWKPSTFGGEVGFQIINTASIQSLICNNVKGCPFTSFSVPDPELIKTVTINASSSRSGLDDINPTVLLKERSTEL

[3] = Selectivity index, ratio of IC50 for ovine COX-1 to IC50 for recombinant human COX-2
Plasma = test: Nitric oxide release in human plasma using 2,3-diaminonaphthlene at 50 uM after 90 mins by fluorescence assay; format: ADME, cell-free; details: 1.5 h
[4] = Nitric oxide release in phosphate-buffered-saline containing human plasma at 50 uM after 90 mins by fluorescence assay in absence of HgCl2
[5] = Nitric oxide release in phosphate-buffered-saline containing K3[Fe(CN)6] using 2,3-diaminonaphthlene at 50 uM after 90 mins by fluorescence assay
[6] = Nitric oxide release in phosphate-buffered-saline containing human plasma at 50 uM after 90 mins by fluorescence assay in presence of HgCl2
[7] = Nitric oxide release in phosphate-buffered-saline containing L-cysteine using 2,3-diaminonaphthlene at 50 uM after 90 mins by fluorescence assay
[8] = biological target: T2, Prostaglandin G/H synthase 1 (Ovis aries, UniProt P05979); test: Inhibition of ovine COX-1 assessed as reduction of prostaglandin-G2 to prostaglandin-H2 and oxidation of 10-acetyl-3,7-dihydroxyphenoxazine to resorufin after 5 mins by fluorescence based assay
T2 sequence (P05979 whole entry): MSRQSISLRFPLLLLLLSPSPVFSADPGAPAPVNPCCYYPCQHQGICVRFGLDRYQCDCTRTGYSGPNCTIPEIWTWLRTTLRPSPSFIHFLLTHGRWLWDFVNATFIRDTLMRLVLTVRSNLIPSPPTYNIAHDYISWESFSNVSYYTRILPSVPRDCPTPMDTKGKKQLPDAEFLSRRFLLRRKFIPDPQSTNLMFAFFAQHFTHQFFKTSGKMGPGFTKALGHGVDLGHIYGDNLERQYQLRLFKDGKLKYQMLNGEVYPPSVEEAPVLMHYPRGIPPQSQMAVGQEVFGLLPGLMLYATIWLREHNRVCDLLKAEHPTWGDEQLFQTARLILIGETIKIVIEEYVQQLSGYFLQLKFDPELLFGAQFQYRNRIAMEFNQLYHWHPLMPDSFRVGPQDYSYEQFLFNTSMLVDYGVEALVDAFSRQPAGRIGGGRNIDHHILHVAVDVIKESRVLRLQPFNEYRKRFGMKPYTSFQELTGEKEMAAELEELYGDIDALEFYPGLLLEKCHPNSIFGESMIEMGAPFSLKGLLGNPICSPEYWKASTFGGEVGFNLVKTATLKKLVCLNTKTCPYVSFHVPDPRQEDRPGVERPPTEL

[9] = Nitric oxide release in phosphate-buffered-saline containing K3[Fe(CN)6] using 2,3-diaminonaphthlene at 50 uM after 90 mins by Griess assay
Serum = test: Nitric oxide release in rat serum using 2,3-diaminonaphthlene at 50 uM after 90 mins by Griess assay; format: ADME, cell-free; details: 1.5 h
[10] = Nitric oxide release in phosphate-buffered-saline using 2,3-diaminonaphthlene at 50 uM after 90 mins by fluorescence assay
[11] = Nitric oxide release in phosphate-buffered-saline using 2,3-diaminonaphthlene at 50 uM after 90 mins by Griess assay

Row | SMILES | Stability [1] | IC50 [2] [µM] | Ratio IC50 [3] | Activity (Plasma) [%] | IC50 [8] [µM] | Activity (Serum) [%] | Activity [4] [%] | Activity [5] [%] | Activity [6] [%] | Activity [7] [%] | Activity [9] [%] | Activity [10] [%] | Activity [11] [%]
1 | Cc1ccc(-c2cc(CO[N+](=O)[O-])nn2-c2ccc(S(N)(=O)=O)cc2)cc1 | Stable | 0.89 | > 112 | 0.3 | > 100 | – | 0 | 0.6 | 3.5 | 1.2 | – | – | –
2 | CC(=O)Oc1ccccc1C(=O)OCCCCO[N+](=O)[O-] | – | 45 | 1.4 | 1.4 | 65 | – | – | 0.2 | – | 0.8 | – | – | –
3 | O=S(=O)(NO)c1ccccc1 | – | – | – | 0.3 | – | 3.2 | – | 48.3 | – | 0.3 | 58.4 | 33.5 | 59.7

More lines, in order of falling IC50 [2], values ahead:

Row | Stability [1] | IC50 [2] [µM] | Ratio IC50 [3] | Activity (Plasma) [%] | IC50 [8] [µM] | Activity (Serum) [%] | SMILES | Activity [4] [%] | Activity [5] [%] | Activity [6] [%] | Activity [7] [%] | Activity [9] [%] | Activity [10] [%] | Activity [11] [%]
4 | Stable | 1.27 | > 78.7 | – | > 100 | – | Cc1ccc(-c2cc(CO)nn2-c2ccc(S(N)(=O)=O)cc2)cc1 | – | – | – | – | – | – | –
5 | – | 0.97 | > 103 | – | > 100 | – | Cc1ccc(-c2cc(CCl)nn2-c2ccc(S(N)(=O)=O)cc2)cc1 | – | – | – | – | – | – | –
6 | – | 0.28 | 218 | 0.5 | 61 | – | Cc1ccc(-c2c(Cl)c(CO[N+](=O)[O-])nn2-c2ccc(S(N)(=O)=O)cc2)cc1 | 0 | – | 3.5 | 0.8 | – | – | –
7 | – | 0.22 | > 454 | – | > 100 | – | Cc1ccc(-c2c(Cl)c(CCl)nn2-c2ccc(S(N)(=O)=O)cc2)cc1 | – | – | – | – | – | – | –
